{"source": "PubChem BioAssay (NCI)", "test_in_all_cases": "NCI anticancer screen, dose series, 384-well format", "key": {"HCT-15 colon": {"tested_on": "HCT-15 colon"}, "IGROV1 ovarian": {"tested_on": "IGROV1 ovarian"}, "NCI-H522 lung": {"tested_on": "NCI-H522 lung"}, "NCI-H460 NSCLC": {"tested_on": "NCI-H460 NSCLC"}, "SR leukemia": {"tested_on": "SR leukemia"}, "A498 renal": {"tested_on": "A498 renal"}, "SNB-75 CNS": {"tested_on": "SNB-75 CNS"}, "DU-145 prostate": {"tested_on": "DU-145 prostate"}, "HOP-62 NSCLC": {"tested_on": "HOP-62 NSCLC"}, "SK-MEL-2 melanoma": {"tested_on": "SK-MEL-2 melanoma"}, "U251 glioblastoma": {"tested_on": "U251 glioblastoma"}, "SF-295 CNS": {"tested_on": "SF-295 CNS"}, "HL-60(TB) leukemia": {"tested_on": "HL-60(TB) leukemia"}, "MOLT-4 leukemia": {"tested_on": "MOLT-4 leukemia"}, "SN12C renal": {"tested_on": "SN12C renal"}, "MDA-MB-468 breast": {"tested_on": "MDA-MB-468 breast"}, "MDA-MB-231 breast": {"tested_on": "MDA-MB-231 breast"}, "OVCAR-5 ovarian": {"tested_on": "OVCAR-5 ovarian"}, "SW-620 colon": {"tested_on": "SW-620 colon"}, "HOP-92 NSCLC": {"tested_on": "HOP-92 NSCLC"}, "UO-31 renal": {"tested_on": "UO-31 renal"}, "ACHN renal": {"tested_on": "ACHN renal"}, "HCT-116 colon": {"tested_on": "HCT-116 colon"}, "UACC-257 melanoma": {"tested_on": "UACC-257 melanoma"}, "TK-10 renal": {"tested_on": "TK-10 renal"}, "786-0 renal": {"tested_on": "786-0 renal"}, "PC-3 prostate": {"tested_on": "PC-3 prostate"}, "RXF 393 renal": {"tested_on": "RXF 393 renal"}, "MDA-MB-435 melanoma": {"tested_on": "MDA-MB-435 melanoma"}, "MCF7 breast": {"tested_on": "MCF7 breast"}, "SK-MEL-28 melanoma": {"tested_on": "SK-MEL-28 melanoma"}, "NCI-H226 lung": {"tested_on": "NCI-H226 lung"}, "RPMI-8226 leukemia": {"tested_on": "RPMI-8226 leukemia"}, "NCI/ADR-RES ovarian": {"tested_on": "NCI/ADR-RES ovarian"}, "A549 NSCLC": {"tested_on": "A549 NSCLC"}, "MALME-3M melanoma": {"tested_on": "MALME-3M melanoma"}, "COLO 205 colon": {"tested_on": "COLO 205 colon"}, "LOX IMVI melanoma": {"tested_on": "LOX IMVI melanoma"}, "T-47D breast": {"tested_on": "T-47D breast"}, "BT-549 breast": {"tested_on": "BT-549 breast"}, "SNB-19 CNS": {"tested_on": "SNB-19 CNS"}, "NCI-H322M lung": {"tested_on": "NCI-H322M lung"}, "HS 578T breast": {"tested_on": "HS 578T breast"}, "K-562 leukemia": {"tested_on": "K-562 leukemia"}, "HCC-2998 colon": {"tested_on": "HCC-2998 colon"}, "NCI-H23 lung": {"tested_on": "NCI-H23 lung"}, "SK-MEL-5 melanoma": {"tested_on": "SK-MEL-5 melanoma"}}, "note": "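At the GI50, growth is halved. TGI: total growth inhibition.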"}
{"smiles": "O=c1[nH]nc2c3c(cccc13)NC(CN1Cc3ccccc3C1)=N2", "values": [{"measurement": "GI50", "setting": "HCT-15 colon", "value": 8.44, "unit": "µM"}, {"measurement": "TGI", "setting": "HCT-15 colon", "value": "> 100", "unit": "µM"}, {"measurement": "GI50", "setting": "IGROV1 ovarian", "value": 3.55, "unit": "µM"}, {"measurement": "TGI", "setting": "IGROV1 ovarian", "value": 70.6, "unit": "µM"}, {"measurement": "GI50", "setting": "NCI-H522 lung", "value": 2.49, "unit": "µM"}, {"measurement": "TGI", "setting": "NCI-H522 lung", "value": 7.83, "unit": "µM"}, {"measurement": "GI50", "setting": "NCI-H460 NSCLC", "value": 5.18, "unit": "µM"}, {"measurement": "TGI", "setting": "NCI-H460 NSCLC", "value": "> 71.8", "unit": "µM"}, {"measurement": "GI50", "setting": "SR leukemia", "value": 2.36, "unit": "µM"}, {"measurement": "TGI", "setting": "SR leukemia", "value": 8.2, "unit": "µM"}, {"measurement": "GI50", "setting": "A498 renal", "value": 3.21, "unit": "µM"}, {"measurement": "TGI", "setting": "A498 renal", "value": 12.4, "unit": "µM"}, {"measurement": "GI50", "setting": "SNB-75 CNS", "value": 2.32, "unit": "µM"}, {"measurement": "TGI", "setting": "SNB-75 CNS", "value": 18.9, "unit": "µM"}, {"measurement": "GI50", "setting": "DU-145 prostate", "value": 2.96, "unit": "µM"}, {"measurement": "TGI", "setting": "DU-145 prostate", "value": 24.1, "unit": "µM"}, {"measurement": "GI50", "setting": "HOP-62 NSCLC", "value": 4.06, "unit": "µM"}, {"measurement": "TGI", "setting": "HOP-62 NSCLC", "value": "> 100", "unit": "µM"}, {"measurement": "GI50", "setting": "SK-MEL-2 melanoma", "value": "> 87.1", "unit": "µM"}, {"measurement": "TGI", "setting": "SK-MEL-2 melanoma", "value": "> 100", "unit": "µM"}, {"measurement": "GI50", "setting": "U251 glioblastoma", "value": 7.61, "unit": "µM"}, {"measurement": "TGI", "setting": "U251 glioblastoma", "value": "> 100", "unit": "µM"}, {"measurement": "GI50", "setting": "SF-295 CNS", "value": 10.7, "unit": "µM"}, {"measurement": "TGI", "setting": "SF-295 CNS", "value": "> 100", "unit": "µM"}, {"measurement": "GI50", "setting": "HL-60(TB) leukemia", "value": 12.9, "unit": "µM"}, {"measurement": "TGI", "setting": "HL-60(TB) leukemia", "value": "> 100", "unit": "µM"}, {"measurement": "GI50", "setting": "MOLT-4 leukemia", "value": 2.5, "unit": "µM"}, {"measurement": "TGI", "setting": "MOLT-4 leukemia", "value": 7.73, "unit": "µM"}, {"measurement": "GI50", "setting": "SN12C renal", "value": 4.09, "unit": "µM"}, {"measurement": "TGI", "setting": "SN12C renal", "value": "> 39.4", "unit": "µM"}, {"measurement": "GI50", "setting": "MDA-MB-468 breast", "value": 2.22, "unit": "µM"}, {"measurement": "TGI", "setting": "MDA-MB-468 breast", "value": 9.99, "unit": "µM"}, {"measurement": "GI50", "setting": "MDA-MB-231 breast", "value": 2.81, "unit": "µM"}, {"measurement": "TGI", "setting": "MDA-MB-231 breast", "value": 14.5, "unit": "µM"}, {"measurement": "GI50", "setting": "OVCAR-5 ovarian", "value": 3.89, "unit": "µM"}, {"measurement": "TGI", "setting": "OVCAR-5 ovarian", "value": 22.6, "unit": "µM"}, {"measurement": "GI50", "setting": "SW-620 colon", "value": 8.37, "unit": "µM"}, {"measurement": "TGI", "setting": "SW-620 colon", "value": "> 100", "unit": "µM"}, {"measurement": "GI50", "setting": "HOP-92 NSCLC", "value": 2.5, "unit": "µM"}, {"measurement": "TGI", "setting": "HOP-92 NSCLC", "value": 16.9, "unit": "µM"}, {"measurement": "GI50", "setting": "UO-31 renal", "value": 11.4, "unit": "µM"}, {"measurement": "TGI", "setting": "UO-31 renal", "value": "> 100", "unit": "µM"}, {"measurement": "GI50", "setting": "ACHN renal", "value": 5.5, "unit": "µM"}, {"measurement": "TGI", "setting": "ACHN renal", "value": "> 78.1", "unit": "µM"}, {"measurement": "GI50", "setting": "HCT-116 colon", "value": 8.67, "unit": "µM"}, {"measurement": "TGI", "setting": "HCT-116 colon", "value": "> 100", "unit": "µM"}, {"measurement": "GI50", "setting": "UACC-257 melanoma", "value": "> 100", "unit": "µM"}, {"measurement": "TGI", "setting": "UACC-257 melanoma", "value": "> 100", "unit": "µM"}, {"measurement": "GI50", "setting": "TK-10 renal", "value": 2.7, "unit": "µM"}, {"measurement": "TGI", "setting": "TK-10 renal", "value": 17.1, "unit": "µM"}, {"measurement": "GI50", "setting": "786-0 renal", "value": 5.12, "unit": "µM"}, {"measurement": "TGI", "setting": "786-0 renal", "value": "> 67.4", "unit": "µM"}, {"measurement": "GI50", "setting": "PC-3 prostate", "value": 4.32, "unit": "µM"}, {"measurement": "TGI", "setting": "PC-3 prostate", "value": 57.5, "unit": "µM"}, {"measurement": "GI50", "setting": "RXF 393 renal", "value": 2.26, "unit": "µM"}, {"measurement": "TGI", "setting": "RXF 393 renal", "value": 7.28, "unit": "µM"}, {"measurement": "GI50", "setting": "MDA-MB-435 melanoma", "value": 3.74, "unit": "µM"}, {"measurement": "TGI", "setting": "MDA-MB-435 melanoma", "value": 15.6, "unit": "µM"}, {"measurement": "GI50", "setting": "MCF7 breast", "value": 7.24, "unit": "µM"}, {"measurement": "TGI", "setting": "MCF7 breast", "value": "> 100", "unit": "µM"}, {"measurement": "GI50", "setting": "SK-MEL-28 melanoma", "value": 5.99, "unit": "µM"}, {"measurement": "TGI", "setting": "SK-MEL-28 melanoma", "value": 27.6, "unit": "µM"}, {"measurement": "GI50", "setting": "NCI-H226 lung", "value": 3.21, "unit": "µM"}, {"measurement": "TGI", "setting": "NCI-H226 lung", "value": 52, "unit": "µM"}, {"measurement": "GI50", "setting": "RPMI-8226 leukemia", "value": 13.8, "unit": "µM"}, {"measurement": "TGI", "setting": "RPMI-8226 leukemia", "value": "> 100", "unit": "µM"}, {"measurement": "GI50", "setting": "NCI/ADR-RES ovarian", "value": 9.41, "unit": "µM"}, {"measurement": "TGI", "setting": "NCI/ADR-RES ovarian", "value": "> 100", "unit": "µM"}, {"measurement": "GI50", "setting": "A549 NSCLC", "value": 5.19, "unit": "µM"}, {"measurement": "TGI", "setting": "A549 NSCLC", "value": 67.5, "unit": "µM"}, {"measurement": "GI50", "setting": "MALME-3M melanoma", "value": 6, "unit": "µM"}, {"measurement": "TGI", "setting": "MALME-3M melanoma", "value": "> 100", "unit": "µM"}, {"measurement": "GI50", "setting": "COLO 205 colon", "value": 5.51, "unit": "µM"}, {"measurement": "TGI", "setting": "COLO 205 colon", "value": "> 56.2", "unit": "µM"}, {"measurement": "GI50", "setting": "LOX IMVI melanoma", "value": 6.61, "unit": "µM"}, {"measurement": "TGI", "setting": "LOX IMVI melanoma", "value": "> 61.4", "unit": "µM"}, {"measurement": "GI50", "setting": "T-47D breast", "value": 22.8, "unit": "µM"}, {"measurement": "TGI", "setting": "T-47D breast", "value": "> 100", "unit": "µM"}, {"measurement": "GI50", "setting": "BT-549 breast", "value": 6.22, "unit": "µM"}, {"measurement": "TGI", "setting": "BT-549 breast", "value": 39.7, "unit": "µM"}, {"measurement": "GI50", "setting": "SNB-19 CNS", "value": 48, "unit": "µM"}, {"measurement": "TGI", "setting": "SNB-19 CNS", "value": "> 100", "unit": "µM"}, {"measurement": "GI50", "setting": "NCI-H322M lung", "value": 5.1, "unit": "µM"}, {"measurement": "TGI", "setting": "NCI-H322M lung", "value": "> 45.7", "unit": "µM"}, {"measurement": "GI50", "setting": "HS 578T breast", "value": 5.78, "unit": "µM"}, {"measurement": "TGI", "setting": "HS 578T breast", "value": "> 100", "unit": "µM"}, {"measurement": "GI50", "setting": "K-562 leukemia", "value": 7.51, "unit": "µM"}, {"measurement": "TGI", "setting": "K-562 leukemia", "value": "> 100", "unit": "µM"}, {"measurement": "GI50", "setting": "HCC-2998 colon", "value": 3.34, "unit": "µM"}, {"measurement": "TGI", "setting": "HCC-2998 colon", "value": 17.9, "unit": "µM"}, {"measurement": "GI50", "setting": "NCI-H23 lung", "value": 2.27, "unit": "µM"}, {"measurement": "TGI", "setting": "NCI-H23 lung", "value": 15.3, "unit": "µM"}, {"measurement": "GI50", "setting": "SK-MEL-5 melanoma", "value": 3.42, "unit": "µM"}, {"measurement": "TGI", "setting": "SK-MEL-5 melanoma", "value": "> 56.2", "unit": "µM"}]}
